{
  "source": "patent US20260285850A1",
  "about": "“SUBSTITUTED OXAZOLIDINONES AND IMIDAZOLINONES AS HERBICIDES” (FMC CORPORATION, priority 2023, published 2026)",
  "type_in_all_cases": "in vivo",
  "key": {"[1]": {"test_system": "barnyardgrass (Echinochloa crus-galli)", "test": "Test A preemergence soil spray, visual injury rating 0-100", "details": "10 days, 0 = no effect, 100 = complete control", "procedure,_shortened": "(§1)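 Seeds sown in loam-sand blend got a preemergence directed soil spray, or emerged plants (2-10 cm, one- to two-leaf) got a postemergence spray, of compound in non-phytotoxic solvent with surfactant. After 10 days in greenhouse, injury rated visually versus untreated controls on a 0 (no effect) to 100 (complete control) scale.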"}, "[2]": {"test_system": "blackgrass (Alopecurus myosuroides)", "test": "Test A preemergence soil spray, visual injury rating 0-100", "details": "10 days, 0 = no effect, 100 = complete control", "procedure,_shortened": "as §1"}, "corn (Zea mays) [3]": {"test_system": "corn (Zea mays)", "test": "Test A preemergence soil spray, visual injury rating 0-100", "details": "10 days, 0 = no effect, 100 = complete control", "procedure,_shortened": "as §1"}, "[4]": {"test_system": "green foxtail (Setaria viridis)", "test": "Test A preemergence soil spray, visual injury rating 0-100", "details": "10 days, 0 = no effect, 100 = complete control", "procedure,_shortened": "as §1"}, "kochia (Bassia scoparia) [5]": {"test_system": "kochia (Bassia scoparia)", "test": "Test A preemergence soil spray, visual injury rating 0-100", "details": "10 days, 0 = no effect, 100 = complete control", "procedure,_shortened": "as §1"}, "[6]": {"test_system": "oat, wild (wild oat, Avena fatua)", "test": "Test A preemergence soil spray, visual injury rating 0-100", "details": "10 days, 0 = no effect, 100 = complete control", "procedure,_shortened": "as §1"}, "[7]": {"test_system": "palmer (palmer amaranth, palmer pigweed, Amaranthus palmeri)", "test": "Test A preemergence soil spray, visual injury rating 0-100", "details": "10 days, 0 = no effect, 100 = complete control", "procedure,_shortened": "as §1"}, "[8]": {"test_system": "ragweed (common ragweed, Ambrosia artemisiifolia)", "test": "Test A preemergence soil spray, visual injury rating 0-100", "details": "10 days, 0 = no effect, 100 = complete control", "procedure,_shortened": "as §1"}, "[9]": {"test_system": "ryegrass, Italian (italian ryegrass, Lolium multiflorum)", "test": "Test A preemergence soil spray, visual injury rating 0-100", "details": "10 days, 0 = no effect, 100 = complete control", "procedure,_shortened": "as §1"}, "soybean (Glycine max) [10]": {"test_system": "soybean (Glycine max)", "test": "Test A preemergence soil spray, visual injury rating 0-100", "details": "10 days, 0 = no effect, 100 = complete control", "procedure,_shortened": "as §1"}, "[11]": {"test_system": "wheat (Triticum aestivum)", "test": "Test A preemergence soil spray, visual injury rating 0-100", "details": "10 days, 0 = no effect, 100 = complete control", "procedure,_shortened": "as §1"}, "[12]": {"test_system": "barnyardgrass (Echinochloa crus-galli)", "test": "Test A postemergence application, visual injury rating 0-100", "details": "10 days", "procedure,_shortened": "as §1"}, "[13]": {"test_system": "blackgrass (Alopecurus myosuroides)", "test": "Test A postemergence application, visual injury rating 0-100", "details": "10 days", "procedure,_shortened": "as §1"}, "corn (Zea mays) [14]": {"test_system": "corn (Zea mays)", "test": "Test A postemergence application, visual injury rating 0-100", "details": "10 days", "procedure,_shortened": "as §1"}, "[15]": {"test_system": "galium (catchweed bedstraw, Galium aparine)", "test": "Test A postemergence application, visual injury rating 0-100", "details": "10 days", "procedure,_shortened": "as §1"}, "[16]": {"test_system": "green foxtail (Setaria viridis)", "test": "Test A postemergence application, visual injury rating 0-100", "details": "10 days", "procedure,_shortened": "as §1"}, "[17]": {"test_system": "horseweed (Erigeron canadensis)", "test": "Test A postemergence application, visual injury rating 0-100", "details": "10 days", "procedure,_shortened": "as §1"}, "kochia (Bassia scoparia) [18]": {"test_system": "kochia (Bassia scoparia)", "test": "Test A postemergence application, visual injury rating 0-100", "details": "10 days", "procedure,_shortened": "as §1"}, "[19]": {"test_system": "oat, wild (wild oat, Avena fatua)", "test": "Test A postemergence application, visual injury rating 0-100", "details": "10 days", "procedure,_shortened": "as §1"}, "[20]": {"test_system": "palmer (palmer amaranth, palmer pigweed, Amaranthus palmeri)", "test": "Test A postemergence application, visual injury rating 0-100", "details": "10 days", "procedure,_shortened": "as §1"}, "[21]": {"test_system": "ragweed (common ragweed, Ambrosia artemisiifolia)", "test": "Test A postemergence application, visual injury rating 0-100", "details": "10 days", "procedure,_shortened": "as §1"}, "[22]": {"test_system": "ryegrass, Italian (italian ryegrass, Lolium multiflorum)", "test": "Test A postemergence application, visual injury rating 0-100", "details": "10 days", "procedure,_shortened": "as §1"}, "soybean (Glycine max) [23]": {"test_system": "soybean (Glycine max)", "test": "Test A postemergence application, visual injury rating 0-100", "details": "10 days", "procedure,_shortened": "as §1"}, "[24]": {"test_system": "wheat (Triticum aestivum)", "test": "Test A postemergence application, visual injury rating 0-100", "details": "10 days", "procedure,_shortened": "as §1"}, "[25]": {"test_system": "barnyardgrass (Echinochloa crusgalli)", "test": "Test B flooded paddy test, visual plant response rating 0-100", "details": "250 g ai/ha, Flood, applied to paddy water, evaluated after 13 days", "procedure,_shortened": "(§2)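 Visual evaluation after 13 days. Water-applied treatment, 3 cm flood depth held constant, plants at 2-leaf stage at treatment.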"}, "[26]": {"test_system": "ducksalad (Heteranthera limosa)", "test": "Test B flooded paddy test, visual plant response rating 0-100", "details": "250 g ai/ha, Flood, applied to paddy water, evaluated after 13 days", "procedure,_shortened": "as §2"}, "rice (Oryza sativa)": {"test_system": "rice (Oryza sativa)", "test": "Test B flooded paddy test, visual plant response rating 0-100", "details": "250 g ai/ha, Flood, applied to paddy water, evaluated after 13 days", "procedure,_shortened": "as §2"}, "[27]": {"test_system": "sedge, umbrella (small-flower umbrella sedge, Cyperus difformis)", "test": "Test B flooded paddy test, visual plant response rating 0-100", "details": "250 g ai/ha, Flood, applied to paddy water, evaluated after 13 days", "procedure,_shortened": "as §2"}, "[28]": {"details": "31 g ai/ha, postemergence, 0 = no effect, 100 = complete control"}, "[29]": {"details": "Postemergence, 125 g ai/ha, 0 is no effect, 100 is complete control"}},
  "data": [
    {"smiles": "CC(C)COC(=O)C1=CCC(NC(=O)C2(C)CN(c3cc(F)cc(F)c3)C(=O)O2)C1", "note": "(stereo not shown) [Compound 16]", "values": [
      {"measurement": "Barnyardgrass plant response rating (0-100)", "setting": "[1]; 31 g ai/ha", "value": 0},
      {"measurement": "Barnyardgrass plant response rating (0 to 100 scale)", "setting": "[1]; 125 g ai/ha", "value": 90},
      {"measurement": "Blackgrass plant response rating (0-100)", "setting": "[2]; 31 g ai/ha", "value": 0},
      {"measurement": "Blackgrass plant response rating (0 to 100 scale)", "setting": "[2]; 125 g ai/ha", "value": 40},
      {"measurement": "Corn plant response rating (0-100)", "setting": "corn (Zea mays) [3]; 31 g ai/ha", "value": 20},
      {"measurement": "Corn plant response rating (0 to 100 scale)", "setting": "corn (Zea mays) [3]; 125 g ai/ha", "value": 70},
      {"measurement": "Foxtail, Green plant response rating (0-100)", "setting": "[4]; 31 g ai/ha", "value": 0},
      {"measurement": "Foxtail, Green plant response rating (0 to 100 scale)", "setting": "[4]; 125 g ai/ha", "value": 100},
      {"measurement": "Kochia plant response rating (0-100)", "setting": "kochia (Bassia scoparia) [5]; 31 g ai/ha", "value": 0},
      {"measurement": "Kochia plant response rating (0 to 100 scale)", "setting": "kochia (Bassia scoparia) [5]; 125 g ai/ha", "value": 40},
      {"measurement": "Oat, Wild plant response rating (0-100)", "setting": "[6]; 31 g ai/ha", "value": 0},
      {"measurement": "Oat, Wild plant response rating (0 to 100 scale)", "setting": "[6]; 125 g ai/ha", "value": 50},
      {"measurement": "Amaranth, Palmer plant response rating (0-100)", "setting": "[7]; 31 g ai/ha", "value": 0},
      {"measurement": "Amaranth, Palmer plant response rating (0 to 100 scale)", "setting": "[7]; 125 g ai/ha", "value": 80},
      {"measurement": "Ragweed plant response rating (0-100)", "setting": "[8]; 31 g ai/ha", "value": 0},
      {"measurement": "Ragweed plant response rating (0 to 100 scale)", "setting": "[8]; 125 g ai/ha", "value": 20},
      {"measurement": "Ryegrass, Italian plant response rating (0-100)", "setting": "[9]; 31 g ai/ha", "value": 40},
      {"measurement": "Ryegrass, Italian plant response rating (0 to 100 scale)", "setting": "[9]; 125 g ai/ha", "value": 90},
      {"measurement": "Soybean plant response rating (0-100)", "setting": "soybean (Glycine max) [10]; 31 g ai/ha", "value": 0},
      {"measurement": "Soybean plant response rating (0 to 100 scale)", "setting": "soybean (Glycine max) [10]; 125 g ai/ha", "value": 0},
      {"measurement": "Wheat plant response rating (0-100)", "setting": "[11]; 31 g ai/ha", "value": 50},
      {"measurement": "Wheat plant response rating (0 to 100 scale)", "setting": "[11]; 125 g ai/ha", "value": 80},
      {"measurement": "Barnyardgrass plant response rating (0-100)", "setting": "[12]; [28]", "value": 100},
      {"measurement": "Barnyardgrass plant response rating (0 to 100 scale)", "setting": "[12]; [29]", "value": 100},
      {"measurement": "Blackgrass plant response rating (0-100)", "setting": "[13]; [28]", "value": 90},
      {"measurement": "Blackgrass plant response rating (0 to 100 scale)", "setting": "[13]; [29]", "value": 100},
      {"measurement": "Corn plant response rating (0-100)", "setting": "corn (Zea mays) [14]; [28]", "value": 90},
      {"measurement": "Corn plant response rating (0 to 100 scale)", "setting": "corn (Zea mays) [14]; [29]", "value": 100},
      {"measurement": "Galium plant response rating (0-100)", "setting": "[15]; [28]", "value": 90},
      {"measurement": "Galium plant response rating (0 to 100 scale)", "setting": "[15]; [29]", "value": 90},
      {"measurement": "Foxtail, Green plant response rating (0-100)", "setting": "[16]; [28]", "value": 90},
      {"measurement": "Foxtail, Green plant response rating (0 to 100 scale)", "setting": "[16]; [29]", "value": 90},
      {"measurement": "Horseweed plant response rating (0-100)", "setting": "[17]; [28]", "value": 0},
      {"measurement": "Horseweed plant response rating (0 to 100 scale)", "setting": "[17]; [29]", "value": 20},
      {"measurement": "Kochia plant response rating (0-100)", "setting": "kochia (Bassia scoparia) [18]; [28]", "value": 70},
      {"measurement": "Kochia plant response rating (0 to 100 scale)", "setting": "kochia (Bassia scoparia) [18]; [29]", "value": 70},
      {"measurement": "Oat, Wild plant response rating (0-100)", "setting": "[19]; [28]", "value": 60},
      {"measurement": "Oat, Wild plant response rating (0 to 100 scale)", "setting": "[19]; [29]", "value": 90},
      {"measurement": "Amaranth, Palmer plant response rating (0-100)", "setting": "[20]; [28]", "value": 20},
      {"measurement": "Amaranth, Palmer / Pigweed, Palmer plant response rating (0 to 100 scale)", "setting": "[20]; [29]", "value": 70},
      {"measurement": "Ragweed plant response rating (0-100)", "setting": "[21]; [28]", "value": 40},
      {"measurement": "Ragweed plant response rating (0 to 100 scale)", "setting": "[21]; [29]", "value": 50},
      {"measurement": "Ryegrass, Italian plant response rating (0-100)", "setting": "[22]; [28]", "value": 70},
      {"measurement": "Ryegrass, Italian plant response rating (0 to 100 scale)", "setting": "[22]; [29]", "value": 90},
      {"measurement": "Soybean plant response rating (0-100)", "setting": "soybean (Glycine max) [23]; [28]", "value": 60},
      {"measurement": "Soybean plant response rating (0 to 100 scale)", "setting": "soybean (Glycine max) [23]; [29]", "value": 60},
      {"measurement": "Wheat plant response rating (0-100)", "setting": "[24]; [28]", "value": 80},
      {"measurement": "Wheat plant response rating (0 to 100 scale)", "setting": "[24]; [29]", "value": 90},
      {"measurement": "Plant response rating, Barnyardgrass (0 to 100 scale, 0 is no effect and 100 is complete control)", "setting": "[25]", "value": 65},
      {"measurement": "Plant response rating, Ducksalad (0 to 100 scale, 0 is no effect and 100 is complete control)", "setting": "[26]", "value": 70},
      {"measurement": "Plant response rating, Rice (0 to 100 scale, 0 is no effect and 100 is complete control)", "setting": "rice (Oryza sativa)", "value": 65},
      {"measurement": "Plant response rating, Sedge, Umbrella (0 to 100 scale, 0 is no effect and 100 is complete control)", "setting": "[27]", "value": 65}
    ]}
  ]
}
